Assay results published in patent US20200405697A1, “Antitumor Agent” (Taiho Pharmaceutical Co., Ltd, priority 2017, published 2020).

The molecules below were run against T1, human RNR (histidine tagged human M1 and human M2 proteins) (Homo sapiens, UniProt P23921) (assay: Human RNR inhibition effect (dCDP formation from CDP)). Conditions: 10 μM CDP, 37° C. for 30 minutes, read-out: RNR inhibitory activity IC50.
T1 construct: made in house; host or cells: Escherichia coli
T1 sequence (P23921 1-792): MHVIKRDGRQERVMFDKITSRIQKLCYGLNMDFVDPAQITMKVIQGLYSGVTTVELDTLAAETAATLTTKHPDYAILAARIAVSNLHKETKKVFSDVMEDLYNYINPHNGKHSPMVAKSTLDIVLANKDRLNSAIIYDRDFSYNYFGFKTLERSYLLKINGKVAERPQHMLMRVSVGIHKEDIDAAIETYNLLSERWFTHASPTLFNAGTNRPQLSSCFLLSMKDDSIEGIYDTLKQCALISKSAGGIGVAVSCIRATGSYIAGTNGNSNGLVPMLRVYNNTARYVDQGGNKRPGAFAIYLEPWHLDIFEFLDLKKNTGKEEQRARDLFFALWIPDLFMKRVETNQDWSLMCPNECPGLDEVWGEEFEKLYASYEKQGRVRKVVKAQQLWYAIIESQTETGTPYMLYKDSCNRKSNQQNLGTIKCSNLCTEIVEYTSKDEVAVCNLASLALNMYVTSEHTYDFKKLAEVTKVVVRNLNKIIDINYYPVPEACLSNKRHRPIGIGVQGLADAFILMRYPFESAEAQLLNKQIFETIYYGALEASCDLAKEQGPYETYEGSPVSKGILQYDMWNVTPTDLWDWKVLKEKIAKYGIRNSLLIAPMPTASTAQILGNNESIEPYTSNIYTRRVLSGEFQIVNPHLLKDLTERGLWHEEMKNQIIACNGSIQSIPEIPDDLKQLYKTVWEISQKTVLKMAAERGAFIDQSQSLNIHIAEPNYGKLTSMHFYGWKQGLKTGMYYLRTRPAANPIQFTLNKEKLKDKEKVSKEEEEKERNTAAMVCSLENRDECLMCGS
Assay type: biochemical
Outline: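 His-tagged human M1 (isoform 1) and N-terminal 59-aa-truncated M2 (isoform 2), E. coli-expressed, Ni-purified, preincubated 20 min with compound (1% DMSO). Reaction with 10 μM CDP, 2 mM ATP, 0.24 mM NADPH, 6 mM DTT, 4 mM Mg acetate, 100 mM KCl, 50 mM HEPES pH 7.2, 30 min at 37° C. dCDP formed quantified by reverse-phase HPLC after heat stop.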

Row | IC50 [nM] | Compound
1 | 160 | Cc1ccc(F)c([C@@H](C)[C@H](NS(=O)(=O)c2ccc(Cl)c(C#N)n2)c2n[nH]c(=O)o2)c1C [Example 105, 5-chloro-6-cyano-N-((1S,2R)-2-(6-fluoro-2,3-dimethylphenyl)-1-(5-oxo-4,5-dihydro-1,3,4-oxadiazol-2-yl)propyl)pyridine-2-sulfonamide]
2 | 270 | CC(=O)OC1(C(F)(F)F)CCOc2c1cccc2S(=O)(=O)N[C@H](c1n[nH]c(=O)o1)[C@H](C)c1c(F)ccc(C)c1C (stereo partly drawn) [Example 106, 8-(N-((1S,2R)-2-(6-fluoro-2,3-dimethylphenyl)-1-(5-oxo-4,5-dihydro-1,3,4-oxadiazol-2-yl)propyl)sulfamoyl)-4-(tifluoromethyl)chroman-4-ylacetate]
3 | 240 | Cc1ccc(F)c([C@@H](C)[C@H](NS(=O)(=O)c2ccc(Cl)c3c2C(=O)CCC3)c2n[nH]c(=O)o2)c1C [Example 107, 4-chloro-N-((1S,2R)-2-(6-fluoro-2,3-diinethylphenyl)-1-(5-oxo-4,5-dihydro-1,3,4-oxadiazol-2-yl)propyl)-8-oxo-5,6,7,8-tetrahydronaphthalene-1-sulfonamide]
4 | 430 | COc1c(S(=O)(=O)N[C@H](c2n[nH]c(=O)o2)[C@H](C)c2c(F)ccc(C)c2C)ccc(Cl)c1C(C)(C)OC(C)=O [Example 108, 2-(6-chloro-3-(N-((1S,2R)-2-(6-fluoro-2,3-dimethylphenyl)-1-(5-oxo-4,5-dihydro-1,3,4-oxadiazol-2-yl)propyl)sulfamoyl)-2-methoxyphenyl)propan-2-ylacetate]
5 | 60 | COC(=O)c1nc(S(=O)(=O)N[C@H](c2n[nH]c(=O)o2)[C@H](C)c2c(F)ccc(C)c2C)ccc1Cl [Example 109, methyl 3-chloro-6-(N-((1S,2R)-2-(6-fluoro-2,3-dimethylphenyl)-1-(5-oxo-4,5-dihydro-1,3,4-oxadiazol-2-yl)propyl)sulfamoyl)picolinate]
6 | 960 | Cc1ccc(F)c([C@@H](C)[C@H](NS(=O)(=O)c2c(F)cccc2F)c2n[nH]c(=O)o2)c1C [Example 110, 2,6-difluoro-N-((1S,2R)-2-(6-fluoro-2,3-dimethylphenyl)-1-(5-oxo-4,5-dihydro-1,3,4-oxadiazol-2-yl)propyl)benzenesulfonamide]
7 | 270 | Cc1ccc(F)c([C@@H](C)[C@H](NS(=O)(=O)c2c(F)cc(Cl)cc2F)c2n[nH]c(=O)o2)c1C [Example 111, 4-chloro-2,6-difluoro-N-((1S,2R)-2-(6-fluoro-2,3-dimethylphenyl)-1-(5-oxo-4,5-dihydro-1,3,4-oxadiazol-2-yl)propyl)benzenesulfonamide]
8 | 150 | COc1cc(Cl)cnc1S(=O)(=O)N[C@H](c1n[nH]c(=O)o1)[C@H](C)c1c(F)ccc(C)c1C [Example 112, 5-chloro-N-((1S,2R)-2-(6-fluoro-2,3-dimethylphenyl)-1-(5-oxo-4,5-dihydro-1,3,4-oxadiazol-2-yl)propyl)-3-methoxypyridine-2-sulfonamide]
9 | 60 | Cc1ccc(F)c([C@@H](C)[C@H](NS(=O)(=O)c2ccc(Cl)c(C(=O)N3CCOCC3)n2)c2n[nH]c(=O)o2)c1C [Example 113, 5-chloro-N-((1S,2R)-2-(6-fluoro-2,3-dimethylphenyl)-1-(5-oxo-4,5-dihydro-1,3,4-oxadiazol-2-yl)propyl)-6-(moipholine4-carbonyl)pyridine-2-sulfonamide]
10 | 60 | Cc1ccc(F)c([C@@H](C)[C@H](NS(=O)(=O)c2ccc(Cl)c(C(=O)N3CCCC3)n2)c2n[nH]c(=O)o2)c1C [Example 114, 5-chloro-N-((1S,2R)-2-(6-fluoro-2,3-dimethylphenyl)-1-(5-oxo-4,5-dihydro-1,3,4-oxadiazol-2-yl)propyl)-6-(pyrrolidine-1-carbonyl)pyridine-2-sulfonamide]
